Laboratory results published in paper PMC3169196 (Journal of medicinal chemistry, 2011).

Experiments:
MCF-7 cells = assay: MTT assay, antiproliferative activity in MCF-7; assay type: cell-based, human; details: MCF-7, 10μM of each analogue for three days
[1] = tested on: eukaryotic elongation factor 1A1 (eEF1A1); details: four rounds of biopanning, 12 phage clones per compound sequenced
eEF1A = assay type: binding, human; details: biotinylated compound, MDA-MB-231 cell lysate, neutravidin beads, western blot
MCF10A cells = assay: MTT assay with immortalized normal breast cells MCF10A; assay type: cell-based, human; details: for killing of normal MCF10A cells: compared with cancerous MCF-7 and MDA-MB-231 cells
MDA-MB-231 cells = assay: MTT assay, antiproliferative activity in MDA-MB-231; assay type: cell-based, human; details: for in vitro anticancer activity at single concentration: MDA-MB-231, 10μM of each analogue for three days
protein translation = assay: 35S-Methionine labeled protein translation assay; assay type: cell-based; details: 2, 4 and 8μM for 8 hours
eEF1A2 = target: T1, eEF1A2 (Homo sapiens, UniProt Q05639); assay type: binding; details: biotinylated compounds on SA chip; apparent KDs unreliable
T1 sequence (Q05639 1-463): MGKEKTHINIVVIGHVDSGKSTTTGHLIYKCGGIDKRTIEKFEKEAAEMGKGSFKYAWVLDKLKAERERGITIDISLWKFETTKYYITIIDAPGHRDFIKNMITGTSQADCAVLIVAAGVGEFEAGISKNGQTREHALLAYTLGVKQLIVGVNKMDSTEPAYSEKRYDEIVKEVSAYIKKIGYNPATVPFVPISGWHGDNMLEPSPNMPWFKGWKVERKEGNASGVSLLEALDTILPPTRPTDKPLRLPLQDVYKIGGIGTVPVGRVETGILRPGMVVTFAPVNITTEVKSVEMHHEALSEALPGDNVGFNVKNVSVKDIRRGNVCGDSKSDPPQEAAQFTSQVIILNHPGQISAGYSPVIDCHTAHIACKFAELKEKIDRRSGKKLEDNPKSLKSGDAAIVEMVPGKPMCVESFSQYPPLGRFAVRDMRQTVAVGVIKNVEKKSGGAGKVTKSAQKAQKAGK

[2] = tested on: Akt (Ser473 and Thr308 phosphorylation); assay: Western blot analysis of Akt phosphorylation in MDA-MB-231 cells; assay type: cell-based, human; details: MDA-MB-231, 2μM for 6 hours and 12 hours

| SMILES | in vitro anticancer activity at single concentration (MCF-7 cells) | binding protein recovered from phage clones [1] | binding of eEF1A in pull down (eEF1A) | killing of normal MCF10A cells (MCF10A cells) | in vitro anticancer activity at single concentration (MDA-MB-231 cells) | 35S-methionine incorporation into cellular proteins (protein translation) | normal MCF10A cells killed (MCF10A cells; at 50μM) | decrease in IC50 compared to 10 (MDA-MB-231 cells; MDA-MB-231) [fold] | binding of eEF1A2 (SPR) (eEF1A2) | phosphorylation of serine 473 and threonine 308 in Akt [2] |
| --- | --- | --- | --- | --- | --- | --- | --- | --- | --- | --- |
| COc1ccc(Nc2nc3cc4c(=O)cc(-c5ccc(C(=O)N[C@@H](CC(C)C)C(N)=O)cc5)oc4cc3n2[C@H](C)C2CCCCC2)cc1 [Compound 10] | among the most active compounds | two clones encoded eukaryotic elongation factor 1A1 (eEF1A1) | eEF1A did indeed bind | killed normal MCF10A cell in a similar manner as cancerous MCF-7 and MDA-MB-213 cells | among the most active compounds |  |  |  |  |  |
| CC(C)C[C@H](NC(=O)c1ccc(-c2cc(=O)c3cc([N+](=O)[O-])c(N[C@H](C)C4CCCCC4)cc3o2)cc1)C(N)=O [Compound 39] |  |  |  |  |  | decreased ^35S-methionine incorporation into cellular proteins in a dose-dependent manner | about 65% | 5 | selectively bind to eEF1A2 | able to suppress phosphorylation |
| CC(C)CNc1nc2cc3c(=O)cc(-c4ccc(C(=O)N[C@@H](Cc5ccccc5)C(N)=O)cc4)oc3cc2n1Cc1ccccc1 [Compound 24] | among the most active compounds | Eukaryotic elongation factor 1A 1 (eEF1A1) was also recovered | eEF1A did indeed bind | killed normal MCF10A cell in a similar manner as cancerous MCF-7 and MDA-MB-213 cells | among the most active compounds |  |  |  |  |  |
